Source: article PMC5797166, “A multidrug ABC transporter with a taste for GTP” (Scientific Reports, 2018)

Tests used:
[1] = target: T1, BmrC/BmrD (Bacillus subtilis, UniProt O07549+O07550); assay: fluorescence transport assay, inside-out E. coli membrane vesicles; assay type: biochemical; conditions: 2 mM ATP or GTP, Walker-A K/A double mutant as control
T1 construct: full-length heterodimer overexpressed in E. coli, inside-out membrane vesicles

[2] = target: T2, PatA/PatB (Streptococcus pneumoniae, UniProt Q8DN70+Q8DN72); assay: coupled NADH oxidation assay, GTPase; assay type: biochemical; conditions: nanodiscs of S. pneumoniae lipids, 4 mM GTP, 2 mM MgCl2, pH 7.4
T2 construct: gene ABC-NP; models PatA 1-564, PatB 1-603

[3] = system: Nc1nc2c(ncn2[C@@H]2O[C@H](COP(=O)(O)OP(=O)(O)OP(=O)(O)O)[C@@H](O)[C@H]2O)c(=O)[nH]1; assay: purified protein; assay type: biochemical, Streptococcus pneumoniae; conditions: proteoliposomes of E. coli lipids, 10 mM MgCl2, pH 8, 37 °C, cooperative fit, nH 1.74

T1 sequence (O07550 whole entry): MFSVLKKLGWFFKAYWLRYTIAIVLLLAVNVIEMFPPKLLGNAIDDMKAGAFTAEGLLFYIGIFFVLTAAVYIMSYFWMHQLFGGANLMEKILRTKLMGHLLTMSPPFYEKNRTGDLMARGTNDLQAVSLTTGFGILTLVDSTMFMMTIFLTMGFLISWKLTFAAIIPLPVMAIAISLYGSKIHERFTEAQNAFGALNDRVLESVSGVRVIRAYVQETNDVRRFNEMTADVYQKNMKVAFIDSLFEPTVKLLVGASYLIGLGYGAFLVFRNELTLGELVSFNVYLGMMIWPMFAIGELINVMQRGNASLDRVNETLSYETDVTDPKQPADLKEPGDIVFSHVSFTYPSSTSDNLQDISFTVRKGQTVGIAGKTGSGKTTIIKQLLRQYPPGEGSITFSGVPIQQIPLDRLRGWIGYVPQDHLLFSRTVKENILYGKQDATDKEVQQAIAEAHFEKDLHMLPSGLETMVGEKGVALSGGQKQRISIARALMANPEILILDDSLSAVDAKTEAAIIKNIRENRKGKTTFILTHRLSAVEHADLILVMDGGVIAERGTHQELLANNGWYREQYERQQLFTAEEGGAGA
T1 sequence (O07549 whole entry): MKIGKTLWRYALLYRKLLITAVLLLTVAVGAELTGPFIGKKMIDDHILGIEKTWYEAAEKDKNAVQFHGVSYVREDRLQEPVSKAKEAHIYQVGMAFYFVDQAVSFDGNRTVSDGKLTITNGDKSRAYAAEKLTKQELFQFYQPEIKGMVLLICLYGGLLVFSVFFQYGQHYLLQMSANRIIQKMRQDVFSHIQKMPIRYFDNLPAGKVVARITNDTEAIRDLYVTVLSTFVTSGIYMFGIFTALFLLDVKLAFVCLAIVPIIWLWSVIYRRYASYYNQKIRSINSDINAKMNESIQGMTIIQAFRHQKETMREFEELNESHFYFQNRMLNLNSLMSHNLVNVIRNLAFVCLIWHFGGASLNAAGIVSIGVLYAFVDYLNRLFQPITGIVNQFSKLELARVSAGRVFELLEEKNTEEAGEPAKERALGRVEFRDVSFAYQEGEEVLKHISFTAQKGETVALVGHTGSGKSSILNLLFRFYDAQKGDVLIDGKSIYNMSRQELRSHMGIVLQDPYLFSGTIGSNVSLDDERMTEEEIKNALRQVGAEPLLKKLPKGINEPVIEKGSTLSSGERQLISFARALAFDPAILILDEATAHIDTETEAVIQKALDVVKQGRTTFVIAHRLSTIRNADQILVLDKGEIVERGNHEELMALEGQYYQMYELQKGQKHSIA
T2 sequence (Q8DN70 entry or part of it): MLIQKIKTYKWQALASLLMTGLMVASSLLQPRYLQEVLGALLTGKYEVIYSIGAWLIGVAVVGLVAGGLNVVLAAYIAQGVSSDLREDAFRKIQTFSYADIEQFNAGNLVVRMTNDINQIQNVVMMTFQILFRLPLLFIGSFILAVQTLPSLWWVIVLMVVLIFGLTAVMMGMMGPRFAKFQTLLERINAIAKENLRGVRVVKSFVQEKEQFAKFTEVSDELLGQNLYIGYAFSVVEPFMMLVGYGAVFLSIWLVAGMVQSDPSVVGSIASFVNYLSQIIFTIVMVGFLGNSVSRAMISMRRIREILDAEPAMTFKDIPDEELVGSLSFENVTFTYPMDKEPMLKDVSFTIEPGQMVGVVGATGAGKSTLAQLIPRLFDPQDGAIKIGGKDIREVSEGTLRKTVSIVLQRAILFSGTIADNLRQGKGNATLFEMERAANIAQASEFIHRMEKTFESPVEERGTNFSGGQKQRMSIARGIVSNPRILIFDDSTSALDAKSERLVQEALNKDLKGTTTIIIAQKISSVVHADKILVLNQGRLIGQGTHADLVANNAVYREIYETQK
T2 sequence (Q8DN72 entry or part of it): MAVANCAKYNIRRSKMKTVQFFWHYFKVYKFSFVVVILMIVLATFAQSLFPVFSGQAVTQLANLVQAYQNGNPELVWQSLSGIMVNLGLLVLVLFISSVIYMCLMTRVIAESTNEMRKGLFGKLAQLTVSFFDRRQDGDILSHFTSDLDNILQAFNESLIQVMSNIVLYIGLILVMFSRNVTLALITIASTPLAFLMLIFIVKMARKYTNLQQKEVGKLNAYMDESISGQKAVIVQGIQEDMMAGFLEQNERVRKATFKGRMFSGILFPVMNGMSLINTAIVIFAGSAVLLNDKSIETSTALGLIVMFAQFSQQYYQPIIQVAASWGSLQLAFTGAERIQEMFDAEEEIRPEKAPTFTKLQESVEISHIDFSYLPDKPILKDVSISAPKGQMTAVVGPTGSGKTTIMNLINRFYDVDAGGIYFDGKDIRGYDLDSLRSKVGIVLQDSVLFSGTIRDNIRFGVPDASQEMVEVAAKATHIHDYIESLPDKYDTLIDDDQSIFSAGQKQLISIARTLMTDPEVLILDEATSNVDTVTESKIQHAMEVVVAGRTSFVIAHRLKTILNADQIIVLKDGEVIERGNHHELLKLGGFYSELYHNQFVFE

## CCOc1ccc(-c2nc3ccc(-c4nc5ccc(N6CCN(C)CC6)cc5[nH]4)cc3[nH]2)cc1 [Hoechst 33342, 2′-(4-ethoxyphenyl)-5-(4-methyl-1-piperazinyl)-2,5′-bis-1H-benzimidazole]
[1]; 1 µM Hoechst, 2 mM MgCl2, pH 8.0, 25 °C
  fluorescence transport assay, inside-out E. coli membrane vesicles: BmrC/BmrD behaves as a conventional ABC transporter being more active in the presence of ATP

## COc1cccc2c1C(=O)c1c(O)c3c(c(O)c1C2=O)C[C@@](O)(C(=O)CO)C[C@@H]3O[C@H]1C[C@H](N)[C@H](O)[C@H](C)O1 [doxorubicin]
[1]; 2 µM doxorubicin, 2 mM MgCl2, pH 8.0, 25 and 37 °C
  fluorescence transport assay, inside-out E. coli membrane vesicles: ATP was the preferred energy substrate for BmrC/BmrD at both temperatures

## [O]=[V]([OH])([OH])[OH] [orthovanadate]
[2]
  % inhibition at 4 mM: 94%

## PatA/PatB (Streptococcus pneumoniae R6)
[3]
  Km: 2640 ± 460 µM
